Measured values as given in patent US8524274B2, “Liposomal composition comprising an active ingredient for relaxing smooth muscle, the production of this composition and the therapeutic use thereof” (Polymun Scientific Immunbiologische Forschung GmbH, priority 2004, dated 2013).
Counter-ions that a name gives are not always drawn.

How the values were obtained:
[1] = Active loading of DPPC/cholesterol liposomes via H+ gradient; active ingredient and lipid content by rp-HPLC; assay type: physicochemical; conditions: two-stage variant; converted from the inclusion rate
Description: External loading of liposomes with sildenafil by means of H^+ gradient. The best inclusion rates were achieved under the following conditions. The lipids (molar DPPC:cholesterol ratio=55:45; in total 13 to 15 μmol per ml of aqueous phase) were dissolved in ethanol and this solution was injected into 125 mM ammonium sulphate solution. After spontaneous vesicle formation, the remaining, external ammonium sulphate solution was replaced by a 5% glucose solution and sildenafil citrate was added. In this way, an H^+ gradient formed between the inside and outside of the lipid vesicles. pH values below 2.5 are less suitable owing to resultant hydrolysis problems, and pH values greater than 5.5 are also not preferred, owing to the increasingly flat H^+ gradient. An aqueous 125 mM ammonium sulphate solution typically has a pH in the range of about 5-5.5. After removal of sildenafil which has not been included by means of gel filtration, both the active ingredient content and the lipid content were determined by means of rp-HPLC. Liposome size and distribution were determined by means of photon correlation spectroscopy (PCS). […]

[2] = Solubility of the active ingredient in loading buffer systems and in water; assay type: physicochemical; conditions: for solubility in citrate buffer: citric acid (intraliposomal) and citric acid/sodium carbonate pH 7.5-8.0 (extraliposomal)
Excerpt: NH3, which is present in a reversible equilibrium with ammonium sulphate in the intraliposomal aqueous medium, attempts to migrate out through the liposome membrane and to leave behind an H^+. Sildenafil migrates in the opposite direction into the liposome, takes up the hydrogen ion H^+, becomes more hydrophilic thereby and therefore remains in the […]. In this way, sildenafil can be efficiently loaded into liposomes. This applies in a similar manner also to the sildenafil alternatives tadalafil and vardenafil.

| SMILES | active ingredient per ml of liposomal suspension [1] | solubility in citrate buffer [2] | solubility in water ([2]; water) |
| --- | --- | --- | --- |
| CCCc1nn(C)c2c(=O)[nH]c(-c3cc(S(=O)(=O)N4CCN(C)CC4)ccc3OCC)nc12 [sildenafil] | 1000-1500 μg of active ingredient per ml of liposomal suspension | only poorly soluble or not soluble at all |  |
| CCCc1nn(C)c2c(=O)[nH]c(-c3cc(S(=O)(=O)N4CCN(C)CC4)ccc3OCC)nc12 [sildenafil citrate] |  | insoluble or scarcely soluble | dissolves very readily |
